Source: patent US20050159599A1, “Cyclic compound, process for producing the same, and pest control agent” (priority 2002, published 2005)

Legend:
Type in all cases: in vivo
[1] = test system: Spodoptera litura; assay: Insecticidal effect for Spodoptera litura by spraying treatment to host crop (Test Example 2); details: 100 ppm, sprayed on soybean, third-instar larvae of Spodoptera litura, fifth day after; for pest or weed control at 100 ppm: 120 h, read-out: rate of dead pests (%)
Outline: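 Ten third-instar larvae held at 25° C. on two excised primary soybean leaves previously sprayed to dripping with 100 ppm test solution. Mortality (%) calculated from dead versus tested larvae on the fifth day.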

[2] = test system: Plutella xylostella; assay: Insecticidal effect for Plutella xylostella by immersion treatment of host crop (Test Example 1); details: cabbage leaf dipped, second-instar larvae of Plutella xylostella, fifth day after; for rate of dead pests (%): 100 ppm; for pest or weed control at 100 ppm: foliar, 120 h, read-out: rate of dead pests (%)
Method: Insecticidal Effect for Plutella xylostella by Immersion Treatment of Host Crop One true leaf of 7 to 8-leave stage cabbage was cut off and dipped in a pesticidal solution for a few seconds, which was prepared by dissolving 5 mg of test compound (represented by the compound Nos. in the above Examples) in 0.5 ml of acetone containing Tween 20 (trade name) and then diluting it to the prescribed concentration (100 ppm) with Dain (trade name, sticker) water diluted 5000-fold. After drying the pesticidal solution, the leaf was put into an ice cream cup (180 ml), and ten second-instar larvae of Plutella xylostella were set free therein. The cup was left in a temperature-controlled breeding room (24° C.). On the fifth day after, the number of surviving Plutella xylostella was examined. The rate of dead pests was calculated by the following formula. rate of dead pests (%)=(number of dead pests/number of test pests)×100

[3] = test system: Spodoptera litura; assay: Insecticidal effect for Spodoptera litura by immersion treatment of host crop root (Test Example 4); details: 25 ppm; soybean root immersion 5 days; second-instar larvae of Spodoptera litura; fifth day after
Method: Insecticidal Effect for Spodoptera litura by Immersion Treatment of Host Crop Root Roots of primary leaves developing stage soybean was washed with tap water to remove soil, and then immersed in a pesticidal solution which was prepared by dissolving 5 mg of test compound (represented by the compound Nos. in the above Examples) in 0.5 ml of acetone containing Tween 20 ([…]) with ion-exchange water, and which was filled in a light-shielded Erlenmeyer flask (100 ml). On the fifth day after immersion of root, two primary leaves were cut off, and the leaves were put into an ice cream cup (180 ml). Ten second-instar larvae of Spodoptera litura were set free therein, and the cup was left in a temperature-controlled breeding room (25° C.). On the fifth day after, the number of surviving Spodoptera litura was examined. The rate of dead pests was calculated by the following formula. rate of dead pests (%)=(number of dead pests/number of test pests)×100

| SMILES | rate of dead pests (%) [1] | rate of dead pests (%) [2] | pest or weed control at 100 ppm [1] | pest or weed control at 100 ppm [2] | rate of dead pests (%) [3] |
| --- | --- | --- | --- | --- | --- |
| COC(=O)N1CN(C(=O)c2c(F)cccc2F)C(=O)N(c2ccc(Oc3ccc(C(F)(F)F)cc3Cl)cc2F)C1 [III-28] | 100% | 100% |  |  |  |
| CN(C)C(=O)C(=O)N1CN(C(=O)c2c(F)cccc2F)C(=O)N(c2ccc(Oc3ccc(C(F)(F)F)cc3Cl)cc2F)C1 [III-43, 2-[3-[4-(2-chloro-4-trifluoromethylphenoxy)-2-fluorophenyl]-5-(2,6-difluorobenzoyl)hexahydro-4-oxo-1,3,5-triazin-1-yl]-N,N-dimethyl-2-oxoacetamide] |  |  | 100% | 100% |  |
| O=C(NOCc1ccccc1)C(=O)N1CN(C(=O)c2c(F)cccc2F)C(=O)N(c2ccc(Oc3ccc(C(F)(F)F)cc3Cl)cc2F)C1 [III-50] | 100% | 100% |  |  |  |
| O=C(c1c(F)cccc1F)N1CN(c2ccccc2)CN(c2cc(Cl)c(F)c(Cl)c2F)C1=O [III-54] | 100% | 100% |  |  |  |
| O=C(OCc1ccccc1)N1CN(C(=O)c2c(F)cccc2F)C(=O)N(c2cc(Cl)c(F)c(Cl)c2F)C1 [III-55, 5-benzyloxycarbonyl-1-(3,5-dichloro-2,4-difluorophenyl)-3-(2,6-difluorobenzoyl)tetrahydro-1,3,5-triazin-2(1H)-one] |  |  | 100% | 100% |  |
| C=CCN1CN(C(=O)c2c(F)cccc2F)C(=O)N(c2cc(Cl)c(F)c(Cl)c2F)C1 [III-56] | 100% | 100% |  |  |  |
| C#CCN1CN(C(=O)c2c(F)cccc2F)C(=O)N(c2cc(Cl)c(F)c(Cl)c2F)C1 [III-57] | 100% | 100% |  |  |  |
| O=C(c1c(F)cccc1F)N1CN(Cc2ccccc2)CN(c2cc(Cl)c(F)c(Cl)c2F)C1=O [III-60] | 100% | 100% |  |  |  |
| COC(=O)N1CN(C(=O)c2c(F)cccc2F)C(=O)N(c2cc(Cl)c(F)c(Cl)c2F)C1 [III-61] |  | 100% |  |  | 100% |
| COC(=O)SN1CN(C(=O)c2c(F)cccc2F)C(=O)N(c2cc(Cl)c(F)c(Cl)c2F)C1 [III-62] | 100% | 100% |  |  |  |
| Cc1ccc(S(=O)(=O)N2CN(C(=O)c3c(F)cccc3F)C(=O)N(c3cc(Cl)c(F)c(Cl)c3F)C2)cc1 [III-63] | 100% | 100% |  |  |  |
| O=C(OCc1ccccc1)N1CN(C(=O)c2c(F)cccc2F)C(=O)N(c2cc(Cl)c(OC(F)(F)C(F)C(F)(F)F)cc2Cl)C1 (stereo not drawn) [III-70] | 100% | 100% |  |  |  |
| O=C(c1c(F)cccc1F)N1CNCN(c2cc(Cl)c(OC(F)(F)C(F)C(F)(F)F)cc2Cl)C1=O (stereo not drawn) [III-71] | 100% | 100% |  |  |  |
| COC(=O)C(=O)N1CN(C(=O)c2c(F)cccc2F)C(=O)N(c2cc(Cl)c(OC(F)(F)C(F)C(F)(F)F)cc2Cl)C1 (stereo not drawn) [III-72] | 100% | 100% |  |  |  |
| O=C(OCc1ccccc1)N1CN(C(=O)c2c(F)cccc2F)C(=O)N(c2ccc(SC(F)(F)C(F)Cl)cc2F)C1 (stereo not drawn) [III-77] | 100% | 100% |  |  |  |
| COC(=O)C(=O)N1CN(C(=O)c2c(F)cccc2F)C(=O)N(c2ccc(SC(F)(F)C(F)Cl)cc2F)C1 (stereo not drawn) [III-79] | 100% | 100% |  |  | 100% |
| CN1CN(C(=O)c2c(F)cccc2F)C(=O)N(c2ccc(S(=O)(=O)C(F)F)cc2F)C1 [III-156, 1-(2,6-difluorobenzoyl)-3-[4-(difluoromethylsulfonyl)-2-fluorophenyl]-5-methyltetrahydro-1,3,5-triazin-2 (1H)-one] |  |  | 100% | 100% |  |
| O=C(c1c(F)cccc1F)N1CN=CN(c2ccc(Cl)cc2)C1=O [V-1] | 100% |  |  |  | 100% |
| O=C(c1c(F)cccc1F)N1CN=CN(c2ccc(Oc3ccc(C(F)(F)F)cc3Cl)cc2F)C1=O [V-3] | 100% | 100% |  |  |  |
